Data published in BindingDB's records for doi:10.1016/j.bmcl.2008.06.042 (Ariad Pharmaceuticals, 2008).

Molecular target: FLT3 receptor tyrosine kinase (Homo sapiens) (UniProt P36888)
Test: Inhibition of Flt3

Chain of FLT3 receptor tyrosine kinase (Homo sapiens) (P36888 whole entry, looked up): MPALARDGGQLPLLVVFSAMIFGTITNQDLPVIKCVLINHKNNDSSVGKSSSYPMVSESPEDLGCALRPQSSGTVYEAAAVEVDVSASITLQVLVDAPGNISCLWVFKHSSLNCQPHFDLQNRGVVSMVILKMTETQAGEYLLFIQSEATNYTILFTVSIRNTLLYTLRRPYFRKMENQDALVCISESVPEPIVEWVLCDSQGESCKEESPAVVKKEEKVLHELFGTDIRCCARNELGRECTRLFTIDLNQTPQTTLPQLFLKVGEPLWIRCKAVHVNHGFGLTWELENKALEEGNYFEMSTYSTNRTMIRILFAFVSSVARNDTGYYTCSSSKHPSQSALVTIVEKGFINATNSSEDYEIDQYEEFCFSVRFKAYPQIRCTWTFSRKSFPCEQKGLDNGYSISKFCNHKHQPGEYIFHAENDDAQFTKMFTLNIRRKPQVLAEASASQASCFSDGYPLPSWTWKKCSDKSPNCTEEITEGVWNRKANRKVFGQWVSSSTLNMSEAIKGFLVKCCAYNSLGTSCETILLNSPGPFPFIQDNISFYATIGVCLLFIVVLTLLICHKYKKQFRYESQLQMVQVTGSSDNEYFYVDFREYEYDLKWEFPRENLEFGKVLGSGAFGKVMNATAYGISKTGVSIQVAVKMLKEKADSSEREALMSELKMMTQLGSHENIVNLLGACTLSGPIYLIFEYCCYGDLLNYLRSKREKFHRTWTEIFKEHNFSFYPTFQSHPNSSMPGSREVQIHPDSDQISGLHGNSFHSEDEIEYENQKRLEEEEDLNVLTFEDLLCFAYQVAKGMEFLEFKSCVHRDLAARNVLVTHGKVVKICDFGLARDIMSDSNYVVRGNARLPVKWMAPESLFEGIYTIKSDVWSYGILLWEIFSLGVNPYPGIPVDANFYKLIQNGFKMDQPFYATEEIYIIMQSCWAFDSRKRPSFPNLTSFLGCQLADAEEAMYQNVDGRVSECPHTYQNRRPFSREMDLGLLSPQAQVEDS

IC50: > 1000 nM
Compound: Cc1cccc(C)c1/C=C/n1cnc2c(Nc3ccc(P(C)(C)=O)cc3)ncnc21 [AP24149]
